Experimental data as given in patent publication US10653797B2, “Compounds and compositions for targeting brain injuries and methods of use thereof” (SANFORD BURNHAM PREBYS MEDICAL DISCOVERY INSTITUTE, priority 2015, dated 2020).
Residues, ends and D or L forms follow the SMILES beside them. FAM = fluoresceinamine label

Assays:
[1] = biological target: T1, Tenascin-R (Mus musculus, UniProt Q8BYI9); assay: Peptide affinity chromatography and mass spectrometry of PBI brain extract; format: binding; conditions: mouse PBI brain lysate 6 hrs after injury, eluted with 2 mM free CAQK; mean of three technical replicates
T1 construct: from tissue; host or cells: mouse brain, 6 h after penetrating brain injury (detergent lysate)
T1 sequence (Q8BYI9 32-1358): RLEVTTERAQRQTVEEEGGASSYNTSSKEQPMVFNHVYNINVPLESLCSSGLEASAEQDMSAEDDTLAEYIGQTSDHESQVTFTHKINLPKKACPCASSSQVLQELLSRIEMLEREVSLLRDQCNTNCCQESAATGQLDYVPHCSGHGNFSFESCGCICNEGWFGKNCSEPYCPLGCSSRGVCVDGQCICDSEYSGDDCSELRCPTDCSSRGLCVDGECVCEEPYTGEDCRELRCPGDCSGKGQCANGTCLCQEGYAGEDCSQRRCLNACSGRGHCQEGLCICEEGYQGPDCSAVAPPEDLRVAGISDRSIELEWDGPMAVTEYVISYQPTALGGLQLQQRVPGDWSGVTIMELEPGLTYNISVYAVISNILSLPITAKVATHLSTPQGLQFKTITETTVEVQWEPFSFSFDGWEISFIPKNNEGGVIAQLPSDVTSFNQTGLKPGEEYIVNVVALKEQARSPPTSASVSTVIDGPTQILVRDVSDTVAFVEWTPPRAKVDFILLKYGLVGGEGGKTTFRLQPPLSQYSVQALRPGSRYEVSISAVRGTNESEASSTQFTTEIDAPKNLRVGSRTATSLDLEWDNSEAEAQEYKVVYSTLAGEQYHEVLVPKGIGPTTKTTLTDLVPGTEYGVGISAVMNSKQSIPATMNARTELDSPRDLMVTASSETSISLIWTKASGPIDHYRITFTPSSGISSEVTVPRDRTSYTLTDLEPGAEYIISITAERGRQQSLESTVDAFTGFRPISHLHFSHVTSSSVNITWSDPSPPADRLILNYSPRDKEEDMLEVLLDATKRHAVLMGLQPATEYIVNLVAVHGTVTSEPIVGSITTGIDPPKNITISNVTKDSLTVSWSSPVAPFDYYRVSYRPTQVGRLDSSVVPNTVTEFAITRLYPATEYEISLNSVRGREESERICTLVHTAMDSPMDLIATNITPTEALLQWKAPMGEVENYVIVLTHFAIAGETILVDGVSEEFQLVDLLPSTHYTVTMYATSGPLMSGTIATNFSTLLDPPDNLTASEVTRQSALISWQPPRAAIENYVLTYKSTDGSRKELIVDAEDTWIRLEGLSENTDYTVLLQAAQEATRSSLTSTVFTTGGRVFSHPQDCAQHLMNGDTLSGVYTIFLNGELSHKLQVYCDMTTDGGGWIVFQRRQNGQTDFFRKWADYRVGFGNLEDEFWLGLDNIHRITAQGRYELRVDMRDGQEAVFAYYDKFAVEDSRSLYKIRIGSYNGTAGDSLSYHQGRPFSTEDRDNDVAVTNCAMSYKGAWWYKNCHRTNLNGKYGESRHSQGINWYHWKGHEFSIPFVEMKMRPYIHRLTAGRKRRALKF
Method: For identifying CAQK binding proteins, mouse brains with brain injury were collected 6 hrs after injury. Using liquid nitrogen, the brains were crushed and ground into powder using a mortar and pestle. Next, brain tissue was lysed in PBS containing 200 mM n-octyl-beta-D-glucopyranoside and protease inhibitor cocktail (Roche) as described (Teesalu et al., PNAS 16157-16162 (2009)). The cleared lysate was loaded on to CAQK or control peptide (CGGK) coated Sulfolink-agarose beads (Pierce, Waltham, Mass.) and incubated at 4° C. for 3-4 hrs. The column was washed with wash buffer (75 mM octyl-beta-D-glucopyranoside and protease inhibitor cocktail in PBS) followed by washing with 0.5 mM control peptide in wash buffer to remove nonspecifically bound proteins. The bound proteins were eluted with 2 mM free CAQK peptide. The eluted factions were pooled, their protein concentration determined by using bicinchoninic acid (BCA) protein assay (Thermo Fischer) and the samples were digested using the Filter-aided Sample Preparation (FASP) method (Wisniewski et al., Nat Methods 6:359-362 (2009)). Finally, the digested samples were desalted, dried, and subjected to LC-MS/MS analysis at the Proteomics Core facility of the Sanford Burnham Prebys Medical Discovery Institute. All mass spectra were analyzed with MaxQuant software version 1.5.0.25. […] Empty column denotes protein was not detected.

[2] = system: penetrating brain injury (PBI); format: in vivo, mouse; conditions: for Homing to the injured brain (FAM fluorescence, immunohistochemical staining): i.v. 6 hours after PBI, 30 minutes circulation; for Peptide signal in injured brain 3 hours after injection (retention): mouse, in vivo
Method: All animal experiments were conducted under an approved protocol of the Institutional Animal Care and Use Committee of Sanford Burnham Prebys Medical Discovery Institute. Eight to ten week old male BL6 mice were anesthetized with 4% isoflurane (Aerrane; Baxter, UK) in 70% N2O and 30% O2 and positioned in a stereotaxic frame. Using a head restraint, a 5-mm craniotomy was made using a portable drill and a trephine over the right parietotemporal cortex and the bone flap was removed. Penetrating brain injury model was used as described (Kielian et al., J. Immunol. 166:4634-4643 (2001); Kielian, J. Neuroinflammation 1:16 (2004)). Nine needle punctures using a 21 G needle were made 3 mm deep according to a 3×3 grid, spaced 1 mm in width and 1 mm in height. For traumatic brain injury, a Controlled Cortical Impact (CCI) model was used as described (Krajewska et al., PLoS One 6:e24341 (2011)). Mice were subjected to CCI using the benchmark stereotaxic impactor (Impact One™; myNeuroLab.com) with the actuator part mounted directly on the stereotaxic instrument. The impactor (3 mm in diameter) tip accelerated down to the 1.0 mm distance, reaching the preset velocity of 3 m/s, and the applied electromagnetic force remained there for the dwell time of 85 ms, and then retracted automatically. The contact sensor indicated the exact point of contact for reproducible results. In both models, facemask anesthesia (1-2% isoflurane in 70%/30% nitrous oxide/oxygen) was used during the entire procedure and afterwards, the scalp was closed with sutures, anesthesia discontinued, and mice were administered buprenorphine i.p. for pain control. For the first 2 hours after injury, mice were closely monitored in their cages.
CLARITY was performed on freshly-extracted brain tissues as described (Chung et al., Nature 497:332-337 (2013)). Briefly, mice were intravenously injected with FAM-labeled peptides 6 hours after brain injury. After 30-minute circulation, mice were intracardially perfused with PBS and hydrogel solution (Acrylamide (4%), bis (0.05%), VA-044 Initiator (0.25%), paraformaldehyde 4% in PBS). Following perfusion, the tissues were incubated in the hydrogel solution at 4° C. for 2-3 days. At UCSD Neuroscience Core and Light Microscopy Facility the tissues were then degased with nitrogen and incubated at 37° C. for 3-4 hours for polymerization. Samples were then passively cleared in 4% SDS solution for around 4 weeks until the tissue became transparent. Finally, the samples were washed in PBS-T for 2 days and incubated in gradient glycerol solutions: 30, 50 and 80%, about 1 day each and stored in 80% glycerol at room temperature until imaged on a confocal microscope (Leica SP5).
Animals were intravenously injected, six hours after injury, with 50 nmoles of peptide dissolved in PBS, and allowed to circulate for 30 minutes. Mice were perfused intracardially with saline and organs were isolated and imaged using the Illumatool Bright Light System LT-9900 (Lightools Research). Brains and organs were placed in 4% PFA at pH 7.4 overnight, washed with PBS and placed in graded sucrose solutions overnight before OCT embedding. 10 μm thick sections were cut and analyzed by immunofluorescence. For a complete histological analysis, sections were stained with the Movat pentachrome kit (American Mastertech Inc.) following the manufacturer's instructions.
Frozen sections were permeabilized using PBS-Triton (0.2%), blocking was carried out using 5% blocking buffer: 5% BSA, 1% goat serum, 1% donkey serum in PBS-T. Primary antibodies were incubated in diluted (1%) blocking buffer overnight at dilutions 1/100 or 1/200 at 4° C., washed with PBS-T and incubated with secondary antibodies diluted 1/200 or 1/500 in 1% diluted buffer for one hour at room temperature, subsequently washed with PBS-T, counterstained with DAPI 1 μg/mL in PBS for five minutes, washed with PBS, mounted using mounting media (Vector Biolabs), and imaged on a confocal microscope (Zeiss LSM-710). […]

[3] = system: fluid percussion injury; conditions: intracerebroventricular administration after fluid percussion injury in rats; cited from earlier work

Compound | Homing to the injured brain (FAM fluorescence, immunohistochemical staining) [2] | Peptide signal in injured brain 3 hours after injection (retention) [2] | further results
CGGK ({FAM}-CGGK-NH2) [control peptide of the same length and overall charge as CAQK, immobilized on Sulfolink-agarose beads] |  |  | Log2 LFQ intensity, Tenascin-R (TNR) in column eluate [1]: 24.14
FAM-CAQK: chemically synthesized fluoresceinamine (FAM)-labeled CAQK peptide ({FAM}-CAQK-NH2) | selective homing to the injured brain |  | FAM signal in clarified whole brain (CLARITY) ([2]; i.v. 6 hours after injury, 30-minute circulation): restricted to the injured quadrant of the brain; Co-localization and cellular localization of i.v. injected peptide signal in injured brain ([2]; immunofluorescence of PBI brain sections): prominently accumulated at mature oligodendrocytes
FAM-CGGK: FAM-labeled control peptide (CGGK) of the same length and overall charge as CAQK ({FAM}-CGGK-NH2) | minimal fluorescent signal | completely washed out | 
C[C@H](NC(=O)[C@@H](N)CS)C(=O)N[C@@H](CCC(N)=O)C(=O)N[C@@H](CCCCN)C(N)=O [CAQK] (H-CAQK-NH2) |  | visible | 
CN1CC[C@H](c2c(O)cc(O)c3c(=O)cc(-c4ccccc4Cl)oc23)[C@H](O)C1 [flavopiridol] |  |  | Reduction of lesion volume [3]: approximately 70%
